The text below walks through data of patent US20260144788A1, “COMPOUND FOR SHP2 PROTEIN DEGRADATION AND MEDICAL USES THEREOF” (UBIX THERAPEUTICS, INC., priority 2022, published 2026).

This assay addresses T1, SHP2 protein (Homo sapiens, UniProt Q06124).
T1 sequence (Q06124 1-593): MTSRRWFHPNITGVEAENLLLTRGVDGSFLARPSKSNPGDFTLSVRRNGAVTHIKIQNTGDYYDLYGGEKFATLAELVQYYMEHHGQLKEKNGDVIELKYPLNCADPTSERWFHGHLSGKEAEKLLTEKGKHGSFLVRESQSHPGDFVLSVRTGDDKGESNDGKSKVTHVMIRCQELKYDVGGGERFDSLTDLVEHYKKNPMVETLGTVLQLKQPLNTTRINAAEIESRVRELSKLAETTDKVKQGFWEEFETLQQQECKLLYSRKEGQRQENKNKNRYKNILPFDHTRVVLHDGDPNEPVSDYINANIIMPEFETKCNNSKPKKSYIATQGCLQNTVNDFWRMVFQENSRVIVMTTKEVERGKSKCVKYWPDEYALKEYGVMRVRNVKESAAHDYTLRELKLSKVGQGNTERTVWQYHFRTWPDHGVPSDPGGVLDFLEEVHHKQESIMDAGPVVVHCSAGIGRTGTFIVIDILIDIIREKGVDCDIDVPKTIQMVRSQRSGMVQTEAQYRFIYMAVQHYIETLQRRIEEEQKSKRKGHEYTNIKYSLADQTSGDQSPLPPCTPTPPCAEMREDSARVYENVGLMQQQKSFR
The assay is described as follows: Measurement of SHP2 protein degradation in MV-4-11 cells (western blotting). Type of assay: cell-based. More on the design: endogenous in cells. Particulars: harvested after 24 hours. The protocol:
MV-4-11 cells were treated with the synthesized Example compounds, and the amount of SHP2 protein present in the cells was measured using western blotting detection. The protocol for the experiment conducted using MV-4-11 cells is as follows.
[Culture] MV-4-11 cells were resuspended in IMDM MEDIUM (Hyclone, SH30228.01), 5% FBS (Hyclone, SV30207.02), 1% Penicillin-streptomycin (Welgene, LS 202-02) media and seeded at 1×10^6/mL in 12-well plates (1 mL each).
[Compound treatment]12-well plates were treated as follows. 10 mM stock dissolved in DMSO was serially diluted 1/100 or 1/10 with media, and the compounds were treated to the cells at a final concentration of 0.01, 0.1, 1 μM or 0.001, 0.01, 0.1 μM, and harvested after 24 hours. For the negative control group, DMSO diluted 1/100 or 1/1000 in media was added (3 μL DMSO+297 μL media or 1 μL DMSO+999 μL media).
[Harvest] Each well was pipetted with a 1 mL pipette, collected in a 1.5 mL microtube, and centrifuged (500 g, 5 min, 4° C.). The supernatant was removed, washed with PBS, and centrifuged again (500 g, 5 min, 4° C.). The supernatant was removed and a pellet was prepared.
[Cell lysis and sample preparation] Lysis buffer was prepared as follows. RIPA buffer (Biosesang, RC2038-050-00)+0.5 mM PMSF (SIGMA, P7626)+1× Protease/Phosphatase Inhibitor (Cell signaling, 5872S) were added at 50 μL per tube and incubated on ice for 30 minutes (vortexed at 0 and 30 minutes). After sonication (10 sec pulse, 30 sec rest, 5 cycles, 70% amplification) and centrifugation (15,000 g, 15 min, 4° C.), only the supernatant was transferred to a microtube. RIPA buffer 7.5 μL and sample 2.5 μL were added to a 96-well plate to dilute to 1/4, and then BCA Protein Assay Kit (iNtRON, 21071) A and B were mixed in a 50:1 ratio and 200 μL each was added. After that, the plate was incubated at 37° C. for 30 minutes and left at room temperature for 10 minutes. After shaking for 10 seconds with a SYNERGY H1 microplate reader from BioTek, the absorbance was measured at 562 nm. The protein was quantified using the measured value to prepare a sample, which was then incubated at 70° C. for 10 minutes. The sample buffer used at this time is a mixture of NuPAGE or Bolt 4× sample buffer (Invitrogen) and each 10× sample reducing agent according to the gel to be used, and RIPA buffer was used for protein dilution.
[Western blotting detection] Equal amounts of samples were loaded onto NuPAGE or Bolt Bis-tris 4-12% gradient gels and run (200 V, 35 min). This was transferred to […] NC membranes using Trans-blot Turbo (BIO-RAD) (1.3 A constant, 25 V limit, 15 min), and was blocked at room temperature for 1 hour with Skim milk or Intercept Blocking Buffer (LI-COR, 927-60001):0.1% TBST=1:1. Anti-SHPTP2 Mouse (1:500 in 2% BSA/0.2% TBST, size: 70 kDa, Santacruz sc-7384) was incubated overnight at 4° C., and Anti-GAPDH Rabbit (1:2,000 in 2% BSA/0.2% TBST, size: 37 kDa, CST #2118) was incubated at room temperature for 1.5 hours or 3 hours. After washing three times for 5 minutes each with 0.2% TBST washing buffer, secondary antibodies Anti-Mouse IgG (1:5,000 in 2% BSA/0.2% TBST, CST) and IRDye® 680RD Goat anti-Rabbit IgG Secondary Antibody (1:10,000 in 2% BSA/0.2% TBST, LI-COR 926-68071) were added, and incubated on a rocker at room temperature for 45 minutes. The resultants were washed five times for 5 minutes each with 0.2% TBST washing buffer, and detected using LI-COR's Odyssey. GAPDH was detected with a 700 nm channel, and SHPTP2 was detected using SuperSignal West Pico PLUS Chemiluminescent Substrate.
(In general: In western blotting, separated proteins are transferred to a membrane and probed.)

Consider `Cc1ncsc1-c1ccc(CNC(=O)[C@@H]2C[C@@H](O)CN2C(=O)[C@@H](NC(=O)C2(F)CC2)C(C)(C)C)c(OCCCCCCN2CCC(CNc3cccc(Sc4cnc(N5CCC(C)(CN)CC5)cn4)c3Cl)CC2)c1` [Example 1, (2S,4R)—N-(2-((6-(4-(((3-((5-(4-(aminomethyl)-4-methylpiperidin-1-yl)pyrazin-2-yl)thio)-2-chlorophenyl)amino)methyl)piperidin-1-yl)hexyl)oxy)-4-(4-methylthiazol-5-yl)benzyl)-1-((S)-2-(1-fluorocyclopropane-1-carboxamido)-3,3-dimethylbutanoyl)-4-hydroxypyrrolidine-2-carboxamide], for which the SHP2% degradation is listed as −33.4% (0.01 μM) and 6.5% (0.1 μM).
The corresponding values for `Cc1ncsc1-c1ccc(CNC(=O)[C@@H]2C[C@@H](O)CN2C(=O)[C@@H](NC(=O)C2(F)CC2)C(C)(C)C)c(O[C@H]2CC[C@H](C(=O)N3CC(Nc4cccc(Sc5cnc(N6CCC(C)(N)CC6)cn5)c4Cl)C3)CC2)c1` [Example 12, (2S,4R)—N-(2-(((1R,4S)-4-(3-((3-((5-(4-amino-4-methylpiperidin-1-yl)pyrazin-2-yl)thio)-2-chlorophenyl)amino)azetidine-1-carbonyl)cyclohexyl)oxy)-4-(4-methylthiazol-5-yl)benzyl)-1-((S)-2-(1-fluorocyclopropane-1-carboxamido)-3,3-dimethylbutanoyl)-4-hydroxypyrrolidine-2-carboxamide] are 83.7% and 98.6%.
The corresponding values for `CC(=O)N[C@H](C(=O)N1C[C@H](O)C[C@H]1C(=O)NCc1ccc(-c2scnc2C)cc1O[C@H]1CC[C@H](C(=O)N2CC(Nc3cccc(Sc4cnc(N5CCC6(CC5)Cc5ccccc5[C@H]6N)cn4)c3Cl)C2)CC1)C(C)(C)C` [Example 30, (2S,4R)-1-((S)-2-acetamido-3,3-dimethylbutanoyl)-N-(2-(((1R,4S)-4-(3-((3-((5-((S)-1-amino-1,3-dihydrospiro[indene-2,4′-piperidin]-1′-yl)pyrazin-2-yl)thio)-2-chlorophenyl)amino)azetidine-1-carbonyl)cyclohexyl)oxy)-4-(4-methylthiazol-5-yl)benzyl)-4-hydroxypyrrolidine-2-carboxamide] are 86.1% and 99.9%.
In the same order, the values of `Cc1ncsc1-c1ccc(CNC(=O)[C@@H]2C[C@@H](O)CN2C(=O)[C@@H](NC(=O)C2(F)CC2)C(C)(C)C)c(O[C@H]2CC[C@H](C(=O)N3CC(Nc4cccc(Sc5cnc(N6CCC7(CC6)Cc6ccccc6[C@H]7N)cn5)c4Cl)C3)CC2)c1` [Example 14, (2S,4R)—N-(2-(((1R,4S)-4-(3-((3-((5-((S)-1-amino-1,3-dihydrospiro[indene-2,4′-piperidin]-1′-yl)pyrazin-2-yl)thio)-2-chlorophenyl)amino)azetidine-1-carbonyl)cyclohexyl)oxy)-4-(4-methylthiazol-5-yl)benzyl)-1-((S)-2-(1-fluorocyclopropane-1-carboxamido)-3,3-dimethylbutanoyl)-4-hydroxypyrrolidine-2-carboxamide] are 1.2% and 85.1%.
Consider `Cc1ncsc1-c1ccc(CNC(=O)[C@@H]2C[C@@H](O)CN2C(=O)[C@@H](NC(=O)C2(F)CC2)C(C)(C)C)c(OC2CCN(C(=O)[C@H]3C[C@H](Nc4nccc(Sc5cnc(N6CCC(C)(CN)CC6)cn5)c4Cl)C3)CC2)c1` [Example 61, (2S,4R)—N-(2-((1-((1r,3S)-3-((4-((5-(4-(aminomethyl)-4-methylpiperidin-1-yl)pyrazin-2-yl)thio)-3-chloropyridin-2-yl)amino)cyclobutanecarbonyl)piperidin-4-yl)oxy)-4-(4-methylthiazol-5-yl)benzyl)-1-((S)-2-(1-fluorocyclopropane-1-carboxamido)-3,3-dimethylbutanoyl)-4-hydroxypyrrolidine-2-carboxamide], for which the SHP2% degradation is reported as 80.3% (0.01 μM) and 99.3% (0.1 μM).
The corresponding values for `Cc1ncsc1-c1ccc(CNC(=O)[C@@H]2C[C@@H](O)CN2C(=O)[C@@H](NC(=O)C2(F)CC2)C(C)(C)C)c(OC2CCN(C(=O)[C@H]3C[C@@H](Nc4nccc(Sc5cnc(N6CCC(C)(CN)CC6)cn5)c4Cl)C3)CC2)c1` [Example 59, (2S,4R)—N-(2-((1-((1s,3R)-3-((4-((5-(4-(aminomethyl)-4-methylpiperidin-1-yl)pyrazin-2-yl)thio)-3-chloropyridin-2-yl)amino)cyclobutanecarbonyl)piperidin-4-yl)oxy)-4-(4-methylthiazol-5-yl)benzyl)-1-((S)-2-(1-fluorocyclopropane-1-carboxamido)-3,3-dimethylbutanoyl)-4-hydroxypyrrolidine-2-carboxamide] are 81.7% and 99.5%.
In the same order, the values of `Cc1ncsc1-c1ccc(CNC(=O)[C@@H]2C[C@@H](O)CN2C(=O)[C@@H](NC(=O)C2(F)CC2)C(C)(C)C)c(O[C@H]2CC[C@H](CN3CCC(Nc4cccc(Sc5cnc(N6CCC(C)(CN)CC6)cn5)c4Cl)CC3)CC2)c1` [Example 6, (2S,4R)—N-(2-(((1R,4S)-4-((4-((3-((5-(4-(aminomethyl)-4-methylpiperidin-1-yl)pyrazin-2-yl)thio)-2-chlorophenyl)amino)piperidin-1-yl)methyl)cyclohexyl)oxy)-4-(4-methylthiazol-5-yl)benzyl)-1-((S)-2-(1-fluorocyclopropane-1-carboxamido)-3,3-dimethylbutanoyl)-4-hydroxypyrrolidine-2-carboxamide] are 14.8% and 56.9%.
For the molecule `Cc1ncsc1-c1ccc(CNC(=O)[C@@H]2C[C@@H](O)CN2C(=O)[C@@H](NC(=O)C2(F)CC2)C(C)(C)C)c(OC2CCN(C(=O)C3CCN(c4nccc(Sc5cnc(N6CCC(C)(N)CC6)cn5)c4Cl)CC3)CC2)c1` [Example 66, (2S,4R)—N-(2-((1-(1-(4-((5-(4-amino-4-methylpiperidin-1-yl)pyrazin-2-yl)thio)-3-chloropyridin-2-yl)piperidine-4-carbonyl)piperidin-4-yl)oxy)-4-(4-methylthiazol-5-yl)benzyl)-1-((S)-2-(1-fluorocyclopropane-1-carboxamido)-3,3-dimethylbutanoyl)-4-hydroxypyrrolidine-2-carboxamide], the SHP2% degradation runs as follows: (0.01 μM) 78.6%; (0.1 μM) 99.6%.
